Here are results for 14 molecules from PubChem BioAssay (NCI).

Test in all cases: NCI anticancer screen, dose series, 48 h
The test system of test [1] is HL-60(TB) leukemia.
The subject of test [2] is K-562 leukemia.
Test [3] deals with MDA-MB-435.
For test [4], the system named is MDA-N.
Test [5] has as its system NCI-H226 lung.
Test [6] concerns PC-3 prostate.
For test [7], the system named is RXF 393 renal.
Test [8] has as its system SK-OV-3 ovarian.
For test [9], the system named is TK-10 renal.

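Dose response: 5 concentrations. Exposure: 48 h. Format: 96-well plates. Endpoint: linear interpolation; highest concentration if not reached. TGI marks complete inhibition of growth.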 A value given as a limit tells only on which side of the number the result lay.

`Cc1ccccc1N=Nc1ccc(N/N=C2/CCCNC2=O)c(C)c1`: the TGI in [1], in test [2], in test [3], in [4], in test [5] and in test [6] was more than 100 µM in each case. The TGI in test [7], in test [8] and in test [9] was more than 100 µM in each case.
For the molecule `COc1cc(O)c2c(c1)OCC(Cc1ccc(O)cc1)C2=O` (stereo not given), the TGI in [1], in [2], in test [3], in test [4], in [5] and in [6] was more than 100 µM each time. For the same molecule, the TGI in test [7], in [8] and in test [9] was more than 100 µM throughout.
As to `Cc1ccc(C)c(COCCOCn2ccc(N)nc2=O)c1`, the TGI in [1], in [2], in test [3], in [4], in [5] and in [6] was more than 100 µM each time. For the same molecule, the TGI in test [7], in [8] and in test [9] was more than 100 µM in each case.
With `C/C=C(/C)C(=O)O[C@H]1C[C@@H]2[C@@H](O)c3occ(C)c3C[C@]2(C)[C@@H](C)C1`, the TGI in [1] was 28.9 µM; in test [2] it was 28.5 µM; in [3] it was 33 µM; in [4] it was 41.7 µM; in test [5] it was 29.2 µM; in [6], 35.2 µM. Moreover, the TGI worked out at 28.9 µM in [7], 30.9 µM in [8] and 33.8 µM in [9].
As to `C=C1CC[C@H](O)C(C)(C)[C@@H]1CC/C(C)=C/CC/C=C(\C)CC/C=C(\C)CCC=C(C)C`, the TGI in test [1] was 69 µM; in test [2], more than 100 µM; in test [3], more than 100 µM; in test [4] it was more than 100 µM; in test [5], more than 100 µM; in [6], more than 100 µM. Further, the TGI in test [7] was 51.9 µM; in [8], more than 100 µM; in [9] it was more than 100 µM.
Turning to `CC1ON2CCCC2[C@H]1C(=O)N1C2CC3CCC2(CS1(=O)=O)C3(C)C` (stereo not given in full), the TGI in test [1], in [2], in [3], in test [4], in test [5] and in test [6] was more than 100 µM throughout. In addition, the TGI in test [7], in test [8] and in test [9] was more than 100 µM in each case.
As for `CCn1c(SCC(=O)NNC(=S)Nc2ccc(C)cc2)nc2ccccc2c1=O`, the TGI in test [1], in [2], in test [3], in [4], in test [5] and in [6] was more than 100 µM in each case. Besides, the TGI in [7], in test [8] and in [9] was more than 100 µM throughout.
With `O=C1O/C(=C(/Br)c2ccc(Cl)c(Cl)c2)c2ccccc21`, the TGI in test [1], in [2], in test [3], in test [4], in test [5] and in [6] was more than 10 µM in each case. In addition, the TGI in test [7], in test [8] and in test [9] was more than 10 µM in each case.
Consider `O=C1C(Cl)C(c2cccc(Cl)c2)N1c1ccc(-n2c(=S)[nH]c3ccccc3c2=O)cc1` (stereo not given), for which the TGI in [1] was 52.1 µM; in test [2] it was 45.3 µM; in [3], 36.6 µM; in test [4] it was 54.7 µM; in test [5], 73.8 µM; in test [6] it was more than 100 µM. Besides, the TGI in test [7] worked out at 29 µM; in [8], 72.5 µM; in test [9], 80.1 µM.
As for `O=c1[nH]c(Nc2nc3ccccc3[nH]2)nc2c1CCC2`, the TGI in [1], in [2], in [3], in test [4], in [5] and in test [6] was more than 100 µM in each case. Further, the TGI in test [7], in test [8] and in test [9] was more than 100 µM each time.
As to `Cc1cccc2c(N)c3cccc(C(=O)NCC[N+](C)(C)Cc4c([N+](=O)[O-])ncn4C)c3nc12`, the TGI is more than 44.4 µM in test [1]; more than 100 µM in [2]; more than 100 µM in test [3]; more than 100 µM in [4]; more than 100 µM in test [5]; more than 100 µM in test [6]. In addition, the TGI in test [7] was more than 100 µM; in test [8] it was more than 71.1 µM; in test [9], more than 100 µM.
Consider `CCOC(=O)CN=C1NNS(=O)(=O)c2ccccc21`, for which the TGI in test [1], in test [2], in test [3], in test [4], in test [5] and in test [6] was more than 100 µM each time. The TGI in test [7], in test [8] and in test [9] was more than 100 µM in each case.
On to `COc1ccc(O)c(/C(C)=N/NC(=S)N(C)C)c1`, for which the TGI in [1], in [2], in test [3], in test [4], in test [5] and in [6] was more than 100 µM in each case. Moreover, the TGI in test [7] and in test [8] was more than 100 µM throughout.
For `CCOC(=O)C1(C(=O)OCC)C[C@H](C)[C@](C)(O)C1`, the TGI in [1], in test [2], in [3], in test [4], in test [5] and in test [6] was more than 100 µM each time. For the same molecule, the TGI in [7], in test [8] and in [9] was more than 100 µM throughout.
